Assay results published in patent US10183943B2, “Heterocyclic compounds and their use in preventing or treating bacterial infections” (MUTABILIS, priority 2015, dated 2019).
Like-named read-outs stand apart in the source and are kept apart here.

Assays:
[1] = molecular target: T1, TEM-1 (Escherichia coli, UniProt P62593); assay: β-lactamase inhibitory activity, determination of IC50 (nitrocefin hydrolysis); type: biochemical
T1 construct: made in house; host or cells: E. coli

[2] = molecular target: T2, SHV-1 (Klebsiella pneumoniae, UniProt P0AD64); assay: as above; type: biochemical
T2 construct: made in house; host or cells: E. coli

[3] = molecular target: T3, CTX-M-15 (Escherichia coli, UniProt Q9EXV5); assay: as above; type: biochemical
T3 construct: made in house; host or cells: E. coli

[4] = molecular target: T4, KPC-2 (Klebsiella pneumoniae, UniProt Q9F663); assay: as above; type: biochemical
T4 construct: made in house; host or cells: E. coli

[5] = molecular target: T5, OXA-1 (Escherichia coli, UniProt P13661); assay: as above; type: biochemical
T5 construct: made in house; host or cells: E. coli

[6] = molecular target: T6, OXA-11 (Pseudomonas aeruginosa, UniProt Q06778); assay: as above; type: biochemical
T6 construct: made in house; host or cells: E. coli

[7] = molecular target: T7, OXA-15 (Pseudomonas aeruginosa, UniProt Q51574); assay: biochemical
T7 construct: made in house; host or cells: E. coli

[8] = molecular target: T8, OXA-48 (Klebsiella pneumoniae, UniProt Q6XEC0); assay: β-lactamase inhibitory activity, determination of IC50 (nitrocefin hydrolysis); type: biochemical
T8 construct: made in house; host or cells: E. coli

[9] = tested on: E. cloacae 260508 (TEM-1, CTX-M-15); assay: MIC of compounds alone, broth microdilution; type: cell-based; settings: Enterobacter cloacae, read-out: MIC compounds of the invention alone
Outline: (§1)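 CLSI broth microdilution with compounds alone, spotted from DMSO, against log-phase bacteria at 5×10^5 cfu/mL in cation-adjusted Mueller-Hinton broth. Plates incubated 16-20 h at 35 °C in ambient air; MIC was the lowest concentration preventing visible growth.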

[10] = tested on: E. cloacae P99 (AmpC); assay: MIC of compounds alone, broth microdilution; type: cell-based; settings: Enterobacter cloacae, read-out: MIC compounds of the invention alone
Outline: as §1

[11] = tested on: E. cloacae UFR51 (SHV-12, IMP-8); assay: MIC of compounds alone, broth microdilution; type: cell-based; settings: Enterobacter cloacae, read-out: MIC compounds of the invention alone
Outline: as §1

[12] = tested on: E. cloacae UFR70 (TEM-1, CTX-M-15, CMY-2, OXA-1, Porin loss); assay: MIC of compounds alone, broth microdilution; type: cell-based; settings: Enterobacter cloacae, read-out: MIC compounds of the invention alone
Outline: as §1

[13] = tested on: E. cloacae UFR85 (TEM-1, CTX-M-15, AmpC); assay: MIC of compounds alone, broth microdilution; type: cell-based; settings: Enterobacter cloacae, read-out: MIC compounds of the invention alone
Outline: as §1

[14] = tested on: E. coli 131119 (TEM-1, OXA-48); assay: MIC of compounds alone, broth microdilution; type: cell-based; settings: Escherichia coli, read-out: MIC compounds of the invention alone
Outline: as §1

[15] = tested on: E. coli 190317 (TEM-1, SHV-12, CTX-M-15, OXA-1); assay: MIC of compounds alone, broth microdilution; type: cell-based; settings: Escherichia coli, read-out: MIC compounds of the invention alone
Outline: as §1

[16] = tested on: E. coli RGN238 (OXA-1); assay: MIC of compounds alone, broth microdilution; type: cell-based; settings: Escherichia coli, read-out: MIC compounds of the invention alone
Outline: as §1

[17] = tested on: E. coli UFR18 (CTX-M-15, OXA-204); assay: MIC of compounds alone, broth microdilution; type: cell-based; settings: Escherichia coli, read-out: MIC compounds of the invention alone
Outline: as §1

[18] = tested on: E. coli UFR32 (TEM-1, VEB-1, OXA-10); assay: MIC of compounds alone, broth microdilution; type: cell-based; settings: Escherichia coli, read-out: MIC compounds of the invention alone
Outline: as §1

[19] = tested on: E. coli UFR41 (TEM-1, CTX-M-15, CMY-2, OXA-1, NDM-4); assay: MIC of compounds alone, broth microdilution; type: cell-based; settings: Escherichia coli, read-out: MIC compounds of the invention alone
Outline: as §1

[20] = tested on: E. coli UFR61O (TEM-1, KPC-2); assay: MIC of compounds alone, broth microdilution; type: cell-based; settings: Escherichia coli, read-out: MIC compounds of the invention alone
Outline: as §1

[21] = tested on: E. coli UFR74 (SHV-1, DHA-1); assay: MIC of compounds alone, broth microdilution; type: cell-based; settings: Escherichia coli, read-out: MIC compounds of the invention alone
Outline: as §1

[22] = tested on: K. oxytoca UFR21 (TEM-1, CTX-M-15, OXA-48); assay: MIC of compounds alone, broth microdilution; type: cell-based; settings: Klebsiella oxytoca, read-out: MIC compounds of the invention alone
Outline: as §1

[23] = tested on: K. pneumoniae 160143 (TEM-1, SHV-1, CTX-M-15, KPC-2, OXA-1); assay: MIC of compounds alone, broth microdilution; type: cell-based; settings: Klebsiella pneumoniae, read-out: MIC compounds of the invention alone
Outline: as §1

[24] = tested on: K. pneumoniae 200047 (TEM-1, SHV-32, CTX-M-15, OXA-1); assay: MIC of compounds alone, broth microdilution; type: cell-based; settings: Klebsiella pneumoniae, read-out: MIC compounds of the invention alone
Outline: as §1

[25] = tested on: K. pneumoniae 6299 (TEM-1, SHV-11, OXA-163); assay: MIC of compounds alone, broth microdilution; type: cell-based; settings: Klebsiella pneumoniae, read-out: MIC compounds of the invention alone
Outline: as §1

[26] = tested on: K. pneumoniae BAA-1898 (TEM-1, SHV-11, SHV-12, KPC-2); assay: MIC of compounds alone, broth microdilution; type: cell-based; settings: Klebsiella pneumoniae
Outline: as §1

[27] = tested on: K. pneumoniae UFR24 (TEM-1, SHV-2, SHV-11, OXA-1, OXA-48, OXA-47); assay: MIC of compounds alone, broth microdilution; type: cell-based; settings: Klebsiella pneumoniae, read-out: MIC compounds of the invention alone
Outline: as §1

[28] = tested on: K. pneumoniae UFR39 (CTX-M-15, NDM-1); assay: MIC of compounds alone, broth microdilution; type: cell-based; settings: Klebsiella pneumoniae, read-out: MIC compounds of the invention alone
Outline: as §1

[29] = tested on: K. pneumoniae UFR68 (TEM-1, SHV-11, CTX-M-15, KPC-3); assay: MIC of compounds alone, broth microdilution; type: cell-based; settings: Klebsiella pneumoniae, read-out: MIC compounds of the invention alone
Outline: as §1

[30] = tested on: K. pneumoniae UFR77 (CMY-2); assay: MIC of compounds alone, broth microdilution; type: cell-based; settings: Klebsiella pneumoniae, read-out: MIC compounds of the invention alone
Outline: as §1

[31] = tested on: P. aeruginosa CIP107051 (TEM-24); assay: MIC of compounds alone, broth microdilution; type: cell-based; settings: Pseudomonas aeruginosa
Outline: as §1

[32] = molecular target: AmpC (P99) (Enterobacter cloacae, UniProt P05364); assay: β-lactamase inhibitory activity, determination of IC50 (nitrocefin hydrolysis)
[33] = molecular target: AmpC P. aeruginosa (Pseudomonas aeruginosa, UniProt P24735); assay: as above
Sequence of AmpC P. aeruginosa (P24735 27-397): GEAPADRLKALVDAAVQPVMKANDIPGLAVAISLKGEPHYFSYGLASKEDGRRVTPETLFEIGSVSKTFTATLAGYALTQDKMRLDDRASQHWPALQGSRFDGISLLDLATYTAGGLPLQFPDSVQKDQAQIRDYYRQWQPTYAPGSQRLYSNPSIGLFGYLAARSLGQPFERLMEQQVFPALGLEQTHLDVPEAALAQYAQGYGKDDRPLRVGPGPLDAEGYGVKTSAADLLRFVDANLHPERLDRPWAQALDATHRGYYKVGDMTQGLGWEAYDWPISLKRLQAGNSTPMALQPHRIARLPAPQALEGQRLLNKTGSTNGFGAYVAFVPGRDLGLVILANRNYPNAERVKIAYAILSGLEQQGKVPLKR

T6 sequence (Q06778 21-266): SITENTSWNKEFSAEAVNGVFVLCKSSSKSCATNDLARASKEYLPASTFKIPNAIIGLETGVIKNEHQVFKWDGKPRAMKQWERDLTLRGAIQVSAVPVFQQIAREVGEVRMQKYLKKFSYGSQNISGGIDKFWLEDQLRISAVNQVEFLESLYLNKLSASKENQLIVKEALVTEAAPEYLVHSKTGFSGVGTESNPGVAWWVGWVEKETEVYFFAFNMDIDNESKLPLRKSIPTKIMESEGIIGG
T7 sequence (Q51574 22-275): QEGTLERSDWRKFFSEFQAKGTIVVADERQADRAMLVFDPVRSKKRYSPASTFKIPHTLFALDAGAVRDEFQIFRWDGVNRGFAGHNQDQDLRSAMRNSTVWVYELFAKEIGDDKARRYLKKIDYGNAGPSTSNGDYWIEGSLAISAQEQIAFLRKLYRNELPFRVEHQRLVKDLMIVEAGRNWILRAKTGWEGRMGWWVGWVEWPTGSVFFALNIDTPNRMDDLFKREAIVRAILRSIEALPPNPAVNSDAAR
T2 sequence (P0AD64 22-286): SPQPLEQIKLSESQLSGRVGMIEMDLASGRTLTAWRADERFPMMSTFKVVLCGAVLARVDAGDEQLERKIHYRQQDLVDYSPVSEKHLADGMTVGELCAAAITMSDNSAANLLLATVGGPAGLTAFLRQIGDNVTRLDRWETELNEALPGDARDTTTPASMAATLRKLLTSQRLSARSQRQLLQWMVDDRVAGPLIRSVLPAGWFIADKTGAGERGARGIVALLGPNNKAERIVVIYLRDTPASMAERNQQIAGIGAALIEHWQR
Sequence of AmpC (P99) (P05364 21-381): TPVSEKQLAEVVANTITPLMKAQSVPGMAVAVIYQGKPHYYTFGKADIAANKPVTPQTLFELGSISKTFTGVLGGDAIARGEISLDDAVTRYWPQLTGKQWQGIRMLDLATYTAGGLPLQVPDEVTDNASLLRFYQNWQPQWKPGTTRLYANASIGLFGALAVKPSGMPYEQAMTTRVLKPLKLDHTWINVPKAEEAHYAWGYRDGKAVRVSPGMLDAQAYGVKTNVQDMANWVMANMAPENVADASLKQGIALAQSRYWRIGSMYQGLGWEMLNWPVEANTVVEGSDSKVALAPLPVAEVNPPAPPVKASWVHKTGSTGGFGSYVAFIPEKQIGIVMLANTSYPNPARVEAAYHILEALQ
T1 sequence (P62593 24-286 limits assumed): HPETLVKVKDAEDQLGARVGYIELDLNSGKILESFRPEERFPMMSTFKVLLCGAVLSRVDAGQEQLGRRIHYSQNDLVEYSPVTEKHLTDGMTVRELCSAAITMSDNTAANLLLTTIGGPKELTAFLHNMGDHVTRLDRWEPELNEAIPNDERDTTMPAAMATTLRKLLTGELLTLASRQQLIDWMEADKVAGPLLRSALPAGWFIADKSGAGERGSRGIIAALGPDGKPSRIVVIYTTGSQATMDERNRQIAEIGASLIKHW
T5 sequence (P13661 26-276): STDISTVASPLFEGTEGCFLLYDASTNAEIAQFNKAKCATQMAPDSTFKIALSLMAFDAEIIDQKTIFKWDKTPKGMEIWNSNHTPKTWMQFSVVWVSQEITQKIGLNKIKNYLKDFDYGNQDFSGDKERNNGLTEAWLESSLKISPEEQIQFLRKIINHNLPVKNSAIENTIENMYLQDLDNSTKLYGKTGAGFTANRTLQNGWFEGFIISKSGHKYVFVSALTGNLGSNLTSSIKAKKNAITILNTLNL
T8 sequence (Q6XEC0 23-265 limits assumed): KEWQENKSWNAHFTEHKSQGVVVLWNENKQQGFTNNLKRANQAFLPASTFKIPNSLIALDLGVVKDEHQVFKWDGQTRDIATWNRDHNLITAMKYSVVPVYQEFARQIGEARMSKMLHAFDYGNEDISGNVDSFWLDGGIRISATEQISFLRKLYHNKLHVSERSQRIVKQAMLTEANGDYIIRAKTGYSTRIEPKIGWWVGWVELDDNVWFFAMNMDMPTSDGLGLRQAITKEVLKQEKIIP
T3 sequence (Q9EXV5 entry or part of it): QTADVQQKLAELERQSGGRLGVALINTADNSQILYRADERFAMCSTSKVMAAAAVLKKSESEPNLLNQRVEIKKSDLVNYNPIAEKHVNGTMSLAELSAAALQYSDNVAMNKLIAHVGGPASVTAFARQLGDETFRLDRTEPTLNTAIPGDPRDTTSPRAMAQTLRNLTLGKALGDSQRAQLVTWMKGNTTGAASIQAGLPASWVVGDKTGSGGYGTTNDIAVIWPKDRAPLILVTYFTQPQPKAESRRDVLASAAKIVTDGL
T4 sequence (Q9F663 25-293 limits assumed): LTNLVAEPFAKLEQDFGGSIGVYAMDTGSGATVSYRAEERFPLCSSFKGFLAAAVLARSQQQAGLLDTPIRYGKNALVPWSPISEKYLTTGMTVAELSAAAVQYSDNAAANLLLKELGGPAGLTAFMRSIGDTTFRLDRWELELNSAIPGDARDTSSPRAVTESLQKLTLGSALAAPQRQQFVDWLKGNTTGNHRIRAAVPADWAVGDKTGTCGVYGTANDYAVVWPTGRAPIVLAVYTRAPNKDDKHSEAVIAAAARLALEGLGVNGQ

O=C1N2CC=C(c3cnoc3)C(C2)N1OC(F)(F)C(=O)[O-].[Li+] (centres unmarked) [Example 6, Lithium difluoro-(4-isoxazol-4-yl-7-oxo-1,6-diaza-bicyclo[3.2.1]oct-3-en-6-yloxy)-acetate]
IC50 [1]: 7.3 nM
IC50 [2]: 18 nM
IC50 [3]: 1.7 nM
IC50 [4]: 460 nM
IC50 [5]: 1700 nM
IC50 [6]: 180 nM
IC50 [7]: 28 nM
IC50 [8]: 3.7 nM
MIC [9]: 4 µg/mL
MIC [10]: 4 µg/mL
MIC [11]: 2 µg/mL
MIC [12]: 16 µg/mL
MIC [13]: > 32 µg/mL
MIC [14]: 4 µg/mL
MIC [15]: 2 µg/mL
MIC [16]: 16 µg/mL
MIC [17]: 2 µg/mL
MIC [18]: 2 µg/mL
MIC [19]: > 32 µg/mL
MIC [20]: 8 µg/mL
MIC [21]: > 32 µg/mL
MIC [22]: > 32 µg/mL
MIC [23]: > 32 µg/mL
MIC [24]: 32 µg/mL
MIC [25]: > 32 µg/mL
MIC ([26]; BAA1898, read-out: MIC compounds of the invention alone): > 32 µg/mL
MIC [27]: > 32 µg/mL
MIC [28]: 4 µg/mL
MIC [29]: > 32 µg/mL
MIC [30]: > 32 µg/mL
MIC ([31]; CIP107051, read-out: MIC compounds of the invention alone): > 32 µg/mL
IC50 [32]: 1800 nM
IC50 [33]: 4200 nM

O=C1N2CC=C(c3cnoc3)C(C2)N1OS(=O)(=O)[O-].[Na+] (centres unmarked) [Example 5, Sodium (7-oxo-4-isoxazol-4-yl-1,6-diaza-bicyclo[3.2.1]oct-3-en-6-yl) sulfate]
IC50 [1]: 11 nM
IC50 [2]: 25 nM
IC50 ([3]; class (A), nitrocefin 200 μM, 30 min pre-incubation, read-out: IC50 β-lactamase CTX-M-15): 6.9 nM
IC50 ([4]; class (A), nitrocefin 200 μM, 30 min pre-incubation, read-out: IC50 β-lactamase KPC-2): 270 nM
IC50 ([5]; class (D), nitrocefin 200 μM, 30 min pre-incubation, read-out: IC50 β-lactamase OXA-1): 450 nM
IC50 [6]: 2200 nM
IC50 [7]: 94 nM
IC50 ([8]; class (D), nitrocefin 200 μM, 30 min pre-incubation, read-out: IC50 β-lactamase OXA-48): 5.7 nM
MIC [9]: 16 µg/mL
MIC ([10]; strain P99 (E. cloacae)): 8 µg/mL
MIC ([11]; strain UFR51 (E. cloacae)): 2 µg/mL
MIC [12]: 16 µg/mL
MIC [13]: > 32 µg/mL
MIC ([14]; strain 131119 (E. coli)): 16 µg/mL
MIC ([16]; strain RGN238 (E. coli)): > 32 µg/mL
MIC ([17]; strain UFR18 (E. coli)): 1 µg/mL
MIC ([18]; strain UFR32 (E. coli)): 1 µg/mL
MIC [19]: > 32 µg/mL
MIC ([20]; strain UFR61O (E. coli)): 8 µg/mL
MIC ([21]; strain UFR74 (E. coli)): > 32 µg/mL
MIC [22]: > 32 µg/mL
MIC [23]: > 32 µg/mL
MIC [24]: > 32 µg/mL
MIC ([25]; strain 6299 (K. pneumoniae)): > 32 µg/mL
MIC ([26]; BAA1898, strain BAA-1898 (K. pneumoniae), read-out: MIC compounds of the invention alone): > 32 µg/mL
MIC ([27]; strain UFR24 (K. pneumoniae)): > 32 µg/mL
MIC ([28]; strain UFR39 (K. pneumoniae)): 2 µg/mL
MIC [29]: > 32 µg/mL
MIC ([30]; strain UFR77 (K. pneumoniae)): > 32 µg/mL
MIC ([31]; strain CIP107051 (P. aeruginosa), read-out: MIC compounds of the invention alone): > 32 µg/mL
IC50 [32]: 670 nM
IC50 [33]: 1500 nM
